# Assay results from patent US8686184B2, “Neprilysin inhibitors” (Theravance, Inc., priority 2011, dated 2014).
# Biological target: T1, human neprilysin (EC 3.4.24.11; NEP) (Homo sapiens, UniProt P08473)
# T1 construct: purchased R&D Systems, Minneapolis, Minn; 1182-ZN
# Assay: In vitro enzyme inhibition assay at human NEP (fluorogenic peptide substrate)
# Assay type: biochemical
# Conditions: recombinant human NEP; 37° C.; substrate Mca-D-Arg-Arg-Leu-Dap-(Dnp)-OH 10 μM; values given as ranges; read-out: pKi values at human NEP (converted)
# Description: In vitro Assays for the Quantitation of Inhibitor Potencies at Human and Rat NEP, and Human ACE
# The inhibitory activities of compounds at human and rat neprilysin (EC 3.4.24.11; NEP) and human angiotensin converting enzyme (ACE) were determined using in vitro assays as described below.
# Recombinant human NEP and recombinant human ACE were obtained commercially (R&D Systems, Minneapolis, Minn., catalog numbers 1182-ZN and 929-ZN, respectively). The fluorogenic peptide substrate Mca-D-Arg-Arg-Leu-Dap-(Dnp)-OH (Medeiros et al. (1997) Braz. J. Med. Biol. Res. 30:1157-62; Anaspec, San Jose, Calif.) and Abz-Phe-Arg-Lys(Dnp)-Pro-OH (Araujo et al. (2000) Biochemistry 39:8519-8525; Bachem, Torrance, Calif.) were used in the NEP and ACE assays respectively.
# The assays were performed in 384-well white opaque plates at 37° C. using the fluorogenic peptide substrates at a concentration of 10 μM in Assay Buffer (NEP: 50 mM HEPES, pH 7.5, 100 mM NaCl, 0.01% polyethylene glycol sorbitan monolaurate (Tween-20), 10 μM ZnSO4; ACE: 50 mM HEPES, pH 7.5, 100 mM NaCl, 0.01% Tween-20, 1 μM ZnSO4).
# Test compounds were assayed over the range of concentrations from 10 μM to 20 pM. Test compounds were added to the enzymes and incubated for 30 minute at 37° C. prior to initiating the reaction by the addition of substrate. Reactions were terminated after 20 minutes of incubation at 37° C. by the addition of glacial acetic acid to a final concentration of 3.6% (v/v).
# Plates were read on a fluorometer with excitation and emission wavelengths set to 320 nm and 405 nm, respectively Inhibition constants were obtained by nonlinear regression of the data using the equation (GraphPad Software, Inc., San Diego, Calif.): v=v0/[1+(I/K′)] where v is the reaction rate, v0 is the uninhibited reaction rate, I is the inhibitor concentration and K′ is the apparent inhibition constant.
# Compounds of the invention were tested in this assay and found to have pKi values at human NEP as follows.
# T1 sequence (P08473 52-750 limits assumed): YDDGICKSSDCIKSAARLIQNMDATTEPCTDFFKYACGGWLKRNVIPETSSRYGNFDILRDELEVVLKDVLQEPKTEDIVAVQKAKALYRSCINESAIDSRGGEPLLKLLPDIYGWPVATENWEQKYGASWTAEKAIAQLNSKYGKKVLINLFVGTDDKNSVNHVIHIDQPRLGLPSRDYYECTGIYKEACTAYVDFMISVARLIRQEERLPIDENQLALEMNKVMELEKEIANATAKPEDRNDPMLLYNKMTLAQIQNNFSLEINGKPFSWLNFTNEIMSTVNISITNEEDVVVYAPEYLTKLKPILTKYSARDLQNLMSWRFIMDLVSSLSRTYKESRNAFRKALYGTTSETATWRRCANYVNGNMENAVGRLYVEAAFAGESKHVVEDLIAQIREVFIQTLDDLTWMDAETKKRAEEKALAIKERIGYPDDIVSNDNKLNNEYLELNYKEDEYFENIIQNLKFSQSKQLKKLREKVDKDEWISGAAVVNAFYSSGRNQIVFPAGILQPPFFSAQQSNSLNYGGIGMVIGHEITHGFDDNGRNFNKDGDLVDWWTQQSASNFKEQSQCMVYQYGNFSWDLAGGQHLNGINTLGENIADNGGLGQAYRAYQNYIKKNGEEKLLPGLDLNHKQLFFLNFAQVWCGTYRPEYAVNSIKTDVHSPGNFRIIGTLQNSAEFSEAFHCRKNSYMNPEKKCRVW
row,SMILES,Ki
1,"O=C(O)c1cccc(-c2ccc(C(=O)N[C@H](Cc3ccccc3)[C@@H](O)C(=O)O)cc2)c1 [Example 10-51, 4′-((1R,2R)-1-Benzyl-2-carboxy-2-hydroxy-ethylcarbamoyl)-biphenyl-3-carboxylic acid]",12.6 to 100 nM
2,O=C(Nc1ccc(C(=O)N[C@H](Cc2ccccc2)[C@@H](O)C(=O)O)cc1)Nc1sccc1C(=O)O [Example 10-52],12.6 to 100 nM
3,Cc1cc(C(=O)O)c(NC(=O)Nc2ccc(C(=O)N[C@H](Cc3ccccc3)[C@@H](O)C(=O)O)cc2)s1 [Example 10-53],12.6 to 100 nM
4,"Cc1ccc(C(=O)N[C@H](Cc2ccccc2)[C@@H](O)C(=O)O)cc1Br [Example 10-54, (2R,3R)-3-(3-Bromo-4-methyl-benzoylamino)-2-hydroxy-4-phenyl-butyric acid]",12.6 to 100 nM
5,"CC(C)c1ccc(C(=O)N[C@H](Cc2ccccc2)[C@@H](O)C(=O)O)cc1Br [Example 10-55, (2R,3R)-3-(3-Bromo-4-isopropyl-benzoylamino)-2-hydroxy-4-phenyl-butyric acid]",12.6 to 100 nM
6,"CCCNc1ccc(C(=O)N[C@H](Cc2ccccc2)[C@@H](O)C(=O)O)cc1Cl [Example 10-56, (2R,3R)-3-(3-Chloro-4-propylamino-benzoylamino)-2-hydroxy-4-phenyl-butyric acid]",12.6 to 100 nM
7,"Cc1cc(C(=O)N[C@H](Cc2ccccc2)[C@@H](O)C(=O)O)ccc1-n1c(C)cc(C=O)c1C [Example 10-57, (2R,3R)-3-[4-(3-Formyl-2,5-dimethyl-pyrrol-1-yl)-3-methyl-benzoylamino]-2-hydroxy-4-phenyl-butyric acid]",12.6 to 100 nM
8,"Cc1cc(C(=O)N[C@H](Cc2ccccc2)[C@@H](O)C(=O)O)ccc1-n1cccc1 [Example 10-58, (2R,3R)-2-Hydroxy-3-(3-methyl-4-pyrrol-1-yl-benzoylamino)-4-phenyl-butyric acid]",12.6 to 100 nM
9,"O=C(O)CCc1cccc(C(=O)N[C@H](Cc2ccccc2)[C@@H](O)C(=O)O)c1 [Example 10-59, (2R,3R)-3-[3-(2-Carboxy-ethyl)-benzoylamino]-2-hydroxy-4-phenyl-butyric acid]",12.6 to 100 nM
10,"CCCC1=NN(c2cccc(C(=O)N[C@H](Cc3ccccc3)[C@@H](O)C(=O)O)c2)C(=O)C1 [Example 10-60, (2R,3R)-2-Hydroxy-3-[3-(5-oxo-3-propyl-4,5-dihydro-pyrazol-1-yl)-benzoylamino]-4-phenyl-butyric acid]",12.6 to 100 nM
11,"Cc1ccc(C(=O)N[C@H](Cc2ccccc2)[C@@H](O)C(=O)O)cc1-c1ccc(C(=O)O)cc1 [Example 10-61, 5′-((1R,2R)-1-Benzyl-2-carboxy-2-hydroxy-ethylcarbamoyl)-2′-methyl-biphenyl-4-carboxylic acid]",12.6 to 100 nM
12,"Cc1ccc(C(=O)N[C@H](Cc2ccccc2)[C@@H](O)C(=O)O)cc1-c1cccc(C(=O)O)c1 [Example 10-62, 5′-((1R,2R)-1-Benzyl-2-carboxy-2-hydroxy-ethylcarbamoyl)-2′-methyl-biphenyl-3-carboxylic acid]",12.6 to 100 nM
13,"O=C(N[C@H](Cc1ccccc1)[C@@H](O)C(=O)O)c1cccc(-c2ncccc2C(=O)O)c1 [Example 10-63, 2-[3-((1R,2R)-1-Benzyl-2-carboxy-2-hydroxy-ethylcarbamoyl)-phenyl]-nicotinic acid]",1.26 to 10 nM
14,"O=C(N[C@H](Cc1ccccc1)[C@@H](O)C(=O)O)c1cccc(-c2cccnc2C(=O)O)c1 [Example 10-64, 3-[3-((1R,2R)-1-Benzyl-2-carboxy-2-hydroxy-ethylcarbamoyl)-phenyl]-pyridine-2-carboxylic acid]",12.6 to 100 nM
15,"CCc1ccc(C(=O)N[C@H](Cc2ccccc2)[C@@H](O)C(=O)O)cc1-n1c(=O)[nH]c2sc(C)cc2c1=O [Example 10-65, (2R,3R)-3-[4-Ethyl-3-(6-methyl-2,4-dioxo-1,4-dihydro-2H-thieno[2,3-d]pyrimidin-3-yl)-benzoylamino]-2-hydroxy-4-phenyl-butyric acid]",≤ 1 nM
16,"CCCCC(=O)Nc1cc(C(=O)N[C@H](Cc2ccccc2)[C@@H](O)C(=O)O)ccc1CC [Example 10-66, (2R,3R)-3-(4-Ethyl-3-pentanoylamino-benzoylamino)-2-hydroxy-4-phenyl-butyric acid]",12.6 to 100 nM

row,SMILES,Ki
1,"CCc1ccc(C(=O)N[C@H](Cc2ccccc2)[C@@H](O)C(=O)O)cc1NC(=O)CC(=O)O [Example 10-67, (2R,3R)-3-[3-(2-Carboxy-acetylamino)-4-ethyl-benzoylamino]-2-hydroxy-4-phenyl-butyric acid]",12.6 to 100 nM
2,"CCc1ccc(C(=O)N[C@H](Cc2ccccc2)[C@@H](O)C(=O)O)cc1NC(=O)c1ccccc1 [Example 10-68, (2R,3R)-3-(3-Benzoylamino-4-ethyl-benzoylamino)-2-hydroxy-4-phenyl-butyric acid]",12.6 to 100 nM
3,"CCc1ccc(C(=O)N[C@H](Cc2ccccc2)[C@@H](O)C(=O)O)cc1NC(=O)c1cccnc1 [Example 10-69, (2R,3R)-3-{4-Ethyl-3-[(pyridine-3-carbonyl)-amino]-benzoylamino}-2-hydroxy-4-phenyl-butyric acid]",12.6 to 100 nM
4,"CCc1ccc(C(=O)N[C@H](Cc2ccccc2)[C@@H](O)C(=O)O)cc1NC(=O)c1ccccn1 [Example 10-70, (2R,3R)-3-{4-Ethyl-3-[(pyridine-2-carbonyl)-amino]-benzoylamino}-2-hydroxy-4-phenyl-butyric acid]",12.6 to 100 nM
5,"CCc1ccc(C(=O)N[C@H](Cc2ccccc2)[C@@H](O)C(=O)O)cc1NC(=O)c1ccncc1 [Example 10-71, (2R,3R)-3-{4-Ethyl-3-[(pyridine-4-carbonyl)-amino]-benzoylamino}-2-hydroxy-4-phenyl-butyric acid]",12.6 to 100 nM
6,"CCNC(=O)Nc1cc(C(=O)N[C@H](Cc2ccccc2)[C@@H](O)C(=O)O)ccc1CC [Example 10-72, (2R,3R)-3-[4-Ethyl-3-(3-ethyl-ureido)-benzoylamino]-2-hydroxy-4-phenyl-butyric acid]",12.6 to 100 nM
7,"CCCCNC(=O)Nc1cc(C(=O)N[C@H](Cc2ccccc2)[C@@H](O)C(=O)O)ccc1CC [Example 10-73, (2R,3R)-3-[3-(3-Butyl-ureido)-4-ethyl-benzoylamino]-2-hydroxy-4-phenyl-butyric acid]",12.6 to 100 nM
8,"CCc1ccc(C(=O)N[C@H](Cc2ccccc2)[C@@H](O)C(=O)O)cc1NC(=O)NC(CC(C)C)C(=O)O (stereo partly drawn) [Example 10-74, 2-{3-[5-((1R,2R)-1-Benzyl-2-carboxy-2-hydroxy-ethylcarbamoyl)-2-ethyl-phenyl]-ureido}-4-methyl-pentanoic acid]",12.6 to 100 nM
9,"CCc1ccc(C(=O)N[C@H](Cc2ccccc2)[C@@H](O)C(=O)O)cc1NC(=O)Nc1ccccc1 [Example 10-75, (2R,3R)-3-[4-Ethyl-3-(3-phenyl-ureido)-benzoylamino]-2-hydroxy-4-phenyl-butyric acid]",12.6 to 100 nM
10,"CCc1ccc(C(=O)N[C@H](Cc2ccccc2)[C@@H](O)C(=O)O)cc1NC(=O)Nc1sccc1C(=O)O [Example 10-76, 2-{3-[5-((1R,2R)-1-Benzyl-2-carboxy-2-hydroxy-ethylcarbamoyl)-2-ethyl-phenyl]-ureido}-thiophene-3-carb oxylic acid]",12.6 to 100 nM
11,"CCc1ccc(C(=O)N[C@H](Cc2ccccc2)[C@@H](O)C(=O)O)cc1NC(=O)Nc1sc(C)cc1C(=O)O [Example 10-77, 2-{3-[5-((1R,2R)-1-Benzyl-2-carboxy-2-hydroxy-ethylcarbamoyl)-2-ethyl-phenyl]-ureido}-5-methyl-thiophene-3-carboxylic acid]",≤ 1 nM
12,"CCc1ccc(C(=O)N[C@H](Cc2ccccc2)[C@@H](O)C(=O)O)cc1NC(=O)Nc1ccsc1C(=O)O [Example 10-78, 3-{3-[5-((1R,2R)-1-Benzyl-2-carboxy-2-hydroxy-ethylcarbamoyl)-2-ethyl-phenyl]-ureido}-thiophene-2-carboxylic acid]",12.6 to 100 nM
13,"CCCCOC(=O)Nc1cc(C(=O)N[C@H](Cc2ccccc2)[C@@H](O)C(=O)O)ccc1CC [Example 10-79, (2R,3R)-3-(3-Butoxycarbonylamino-4-ethyl-benzoylamino)-2-hydroxy-4-phenyl-butyric acid]",12.6 to 100 nM
14,"CC(C)c1ccc(C(=O)N[C@H](Cc2ccccc2)[C@@H](O)C(=O)O)cc1-c1ccncc1 [Example 10-80, (2R,3R)-2-Hydroxy-3-(4-isopropyl-3-pyridin-4-yl-benzoylamino)-4-phenyl-butyric acid]",12.6 to 100 nM
15,"CC(C)c1ccc(C(=O)N[C@H](Cc2ccccc2)[C@@H](O)C(=O)O)cc1-c1cccc(C(=O)N(C)C)c1 [Example 10-81, (2R,3R)-3-[(3′-Dimethylcarbamoyl-6-isopropyl-biphenyl-3-carbonyl)-amino]-2-hydroxy-4-phenyl-butyric acid]",12.6 to 100 nM
